Measured values published in patent publication US12448366B2, “Solid forms of pralsetinib” (Rigel Pharmaceuticals, Inc., priority 2020, dated 2025).
≈ marks a conversion by molar mass, not a printed value. Like-named read-outs stand apart in the source and are kept apart here.

Legend:
Format in all cases: physicochemical
[1] = Drying of free base solid forms (XRPD); conditions: for behaviour upon drying: XRPD
[2] = Co-milling co-crystal screening, XRPD; conditions: co-milling with freebase
Experimental: About 30 mg of Compound (I) freebase and 1.05 eq. of co-former were direct weighed into the milling capsule and manually mixed before the addition of 1 volume of solvent (MtBE, MeOAc, or EtOH). Each system was milled once for 30 seconds before solids were collected. Samples of the wet material were taken for XRPD of the ‘wet’ material before drying under active vacuum at 50° C. for 2 hours. Unique patterns were further exposed to 97% R.H. for 24 hours.

[3] = Co-melting co-crystal screening, XRPD; conditions: co-melting with pralsetinib freebase, 1.05 eq. co-former
Experimental: The resulting powder was packed into a 100 μL DSC pan and heated at a rate of 10° C./min to 10° C. above the melting temperature of the lowest melting component. The experiment was isothermally held for 5 min before cooling to room temperature at a rate of 10° C./min. Samples were then taken for XRPD.

[4] = Solubility in water and simulated fluids (fasted/fed state simulated intestinal fluid, fasted state simulated gastric fluid); conditions: for solubility: thermodynamic from solid
[5] = One week (7 days) slurry stability by XRPD and HPLC; conditions: for stability slurrying 7 days in EtOAc / stability slurrying 7 days in EtOH / stability slurrying 7 days in EtOH:water (95:5 vol): XRPD and HPLC
[6] = Salt screening: XRPD of wet cake, after drying under vacuum at 50° C., after exposure to 97% relative humidity; conditions: XRPD; for stability of salt solid form to humidification: 97% (>95%) relative humidity; for stability of salt solid form to drying: vacuum at 50° C.
Experimental: Stock solutions of counter-ion were prepared in EtOH, MeOH, or EtOAc, depending on solubility. […] The solvent was allowed to evaporate at room temperature over the weekend and then placed at 50° C. under vacuum for 3 hours to remove any remaining solvent. Approximately 25 volumes solvent (0.6 mL) was added to each vial for screening. The three solvents selected were EtOH, EtOAc, and IPA:water (9:1 vol). […] XRPD analysis was done in three stages. XRPD of the wet cake was done for all samples. Unique solids were then left on XRPD plates and dried under vacuum at 50° C. XRPD of unique dry solids was then done. […] The humid environment was generated by placing a beaker of saturated potassium sulfate in water in a sealed container. All XRPD patterns were compared to counter ion XRPD patterns and known free base patterns. Where solids were not of sufficient quantity to isolate, the solvent was evaporated at room temperature, the material dried at 50° C. under active vacuum for 3 hours, and then reslurried at room temperature in either MtBE or IPAc overnight after heating to 45° C. for 30 minutes.

[7] = Dynamic vapor sorption (DVS); conditions: for DVS Mass Change: glutarate and succinate: between 2% and 90% relative humidity
Experimental: Dynamic Vapor Sorption (DVS) was done using a DVS Intrinsic 1. The sample is loaded into a sample pan and suspended from a microbalance. A typical sample mass for DVS measurement is 25 mg. Nitrogen gas bubbled through distilled water provides the desired relative humidity. A typical measurement comprises the steps: • 1—Equilibrate at 50% RH • 2—50% to 2%. (50%, 40%, 30%, 20%, 10% and 2%) • a. Hold minimum of 5 mins and maximum of 60 minutes at each humidity. The pass criteria is less than 0.002% change • 3—2% to 95% (2%, 10%, 20%, 30%, 40%, 50%, 60%, 70%, 80%, 90%, 95%) • a. Hold minimum of 5 mins and maximum of 60 minutes at each humidity. The pass criteria is less than 0.002% change • 4—95% to 2% (95%, 80%, 70%, 60%, 50%, 40%, 30%, 20%, 10%, 2%) • a. Hold minimum of 5 mins and maximum of 60 minutes at each humidity. The pass criteria is less than 0.002% change • 5—2% to 50% (2%, 10%, 20%, 30%, 40%, 50%) • a. Hold minimum of 5 mins and maximum of 60 minutes at each humidity. The pass criteria is less than 0.002% change High Pressure Liquid Chromatography (HPLC)
Dynamic Vapor Sorption (DVS) was performed using a DVS Intrinsic 1. The samples (12-31 mg) was loaded into a sample pan, suspended from a microbalance and exposed to a humidified stream of nitrogen gas. The sample was held for a minimum of 5 min at each level and only progressed to the next humidity level if there was <0.002% change in weight between measurements (interval: 60 seconds) or 240 min had elapsed. The following program was used: • 1—Equilibration at 50% RH • 2—50% to 2%. (50%, 40%, 30%, 20%, 10% and 2%) • 3—2% to 95% (2%, 10%, 20%, 30%, 40%, 50%, 60%, 70%, 80%, 90%, 95%) • 4—95% to 2% (95%, 80%, 70%, 60%, 50%, 40%, 30%, 20%, 10%, 2%) • 5—2% to 50% (2%, 10%, 20%, 30%, 40%, 50%) High Performance Liquid Chromatography (HPLC)

[8] = Humidity exposure, 75% relative humidity at 40° C. for one week, XRPD; conditions: for stability on exposure to 75% relative humidity at 40° C.: one week / 7 days, XRPD

For `CO[C@]1(C(=O)N[C@@H](C)c2ccc(-n3cc(F)cn3)nc2)CC[C@H](c2nc(C)cc(Nc3cc(C)[nH]n3)n2)CC1` [Solid Form J, pralsetinib], the behaviour upon drying [1] was “unstable and quickly converted to amorphous” and the behaviour upon drying ([1]; listed as Pattern J) was “either lost crystallinity or became amorphous”.
With `CO[C@]1(C(=O)N[C@@H](C)c2ccc(-n3cc(F)cn3)nc2)CC[C@H](c2nc(C)cc(Nc3cc(C)[nH]n3)n2)CC1` [Solid Form L, pralsetinib] the behaviour upon drying ([1]; listed as Pattern L) was “stable”.
In the case of `O.O.O=c1c(O)c(-c2ccc(O)c(O)c2)oc2cc(O)cc(O)c12` [Quercetin Dihydrate], the “Wet (XRPD)” value ([2]; solvent MtBE, MeOAc, EtOH) is reported as “FB-C + quercetin” and the “Dry (XRPD)” value [3] is reported as “Am”.
For `CO[C@]1(C(=O)N[C@@H](C)c2ccc(-n3cc(F)cn3)nc2)CC[C@H](c2nc(C)cc(Nc3cc(C)[nH]n3)n2)CC1` [Solid Form K, pralsetinib], the behaviour upon drying [1] was “unstable on drying and converted to material characterized by XRPD Pattern M”.
For `CO[C@]1(C(=O)N[C@@H](C)c2ccc(-n3cc(F)cn3)nc2)CC[C@H](c2nc(C)cc(Nc3cc(C)[nH]n3)n2)CC1` [Solid Form 14-A, pralsetinib], the solubility ([4]; fasted state simulated gastric fluid, fassgf or other biorelevant, read-out: Solubility in fasted state simulated gastric fluid) was 1760 µg/mL (≈ 3300 µM), the “residual solid after solubility test” value ([4]; fasted state simulated gastric fluid, listed as solid form 14-A) was “amorphous” and the “residual solid after solubility test” value ([4]; fasted state simulated intestinal fluid) was “pralsetinib freebase solid form A”. The “residual solid after solubility test” value ([4]; fed state simulated intestinal fluid) was “amorphous”, the solubility ([4]; fed state simulated intestinal fluid, fessif, read-out: Solubility in fed state simulated intestinal fluid) was 490 µg/mL (≈ 918 µM) and the “Solubility in fasted state simulated intestinal fluid” value ([4]; listed as solid form 14-A) was 200 µg/mL (≈ 375 µM). The Solubility in water ([4]; listed as solid form 14-A) was 1700 µg/mL (≈ 3190 µM), the “solubility in water” value ([4]; listed as solid form 14-A) was “high solubility” and the “residual solid after solubility test” value ([4]; water) was “XRPD Pattern 14-A”. For the same compound, the “Stability 7-day slurry” value [5] was “Stable”, the “stability slurrying 7 days in EtOAc” value ([5]; listed as solid form 14-A) was “stable” and the “stability slurrying 7 days in EtOH” value ([5]; listed as solid form 14-A) was “stable”. For the same compound, the “stability slurrying 7 days in EtOH:water (95:5 vol)” value ([5]; listed as solid form 14-A) was “stable”, the “reduction (HPLC purity) after 7 days slurry” value ([5]; materials isolated from EtOAc) was 0.07% and the “stability of salt solid form to humidification” value (“stability … to humidification” below) ([6]; listed as Pattern 14-A) was “stable”. For the same compound, the “stability … to humidification” value ([6]; listed as phosphate 14-A) was “stable”, the “stability … to humidification” value ([6]; listed as solid form 14-A) was “stable” and the “stability of salt solid form to drying” value ([6]; listed as Pattern 14-A) was “stable”. For the same compound, the “stability of salt solid form to drying” value ([6]; listed as phosphate 14-A) was “stable”, the “stability of salt solid form to drying” value ([6]; listed as solid form 14-A) was “stable” and the “hysteresis in the DVS plot” value [7] was “minimal hysteresis”. The “mass change by DVS” value ([7]; between 2% and 90% relative humidity, listed as solid form 14-A) was 0.94 wt. %, the “mass change by DVS” value ([7]; between 15% and 75% relative humidity, listed as solid form 14-A) was 0.86 wt. % and the “DVS Mass Change” value ([7]; listed as Phosphate 14-A) was 0.94 wt. %. For the same compound, the “reversibility of the DVS mass change” value ([7]; listed as solid form 14-A) was “appears to be reversible”, the “Stability 40° C./75% RH” value ([8]; XRPD pattern after exposure, listed as Phosphate 14-A) was “Stable” and the “stability on exposure to 75% relative humidity at 40° C.” value ([8]; listed as solid form 14-A) was “stable”.
For `CO[C@]1(C(=O)N[C@@H](C)c2ccc(-n3cc(F)cn3)nc2)CC[C@H](c2nc(C)cc(Nc3cc(C)[nH]n3)n2)CC1` [Solid Form Q, pralsetinib], the behaviour upon drying [1] was “lost crystallinity”.
For `CO[C@]1(C(=O)N[C@@H](C)c2ccc(-n3cc(F)cn3)nc2)CC[C@H](c2nc(C)cc(Nc3cc(C)[nH]n3)n2)CC1` [Solid Form I, pralsetinib], the behaviour upon drying ([1]; listed as Pattern I) was “lost crystallinity”.
With `O=C(O)c1cc(O)ccc1O` [Gentisic Acid] the “Wet (XRPD)” value ([2]; solvent MtBE, MeOAc, EtOH) was “FB-C” and the “Dry (XRPD)” value [3] was “Am”.
With `O=C(O)c1ccc(O)cc1` [4-Hydroxybenzoic Acid] the “Wet (XRPD)” value ([2]; solvent MtBE, MeOAc, EtOH) was “FB-C” and the “Dry (XRPD)” value [3] was “Am”.
For `CO[C@]1(C(=O)N[C@@H](C)c2ccc(-n3cc(F)cn3)nc2)CC[C@H](c2nc(C)cc(Nc3cc(C)[nH]n3)n2)CC1` [Solid Form P, pralsetinib], the behaviour upon drying [1] was “unstable upon drying and converted to a mixture of material characterized by XRPD Pattern P and XRPD Pattern L and extra peaks”.
With `COc1cc(C(=O)O)ccc1O` [Vanillic Acid] the “Wet (XRPD)” value ([2]; solvent EtOH) was “FB-C”, the “Wet (XRPD)” value ([2]; solvent MtBE, MeOAc) was “FB-C + vanillic acid” and the “Dry (XRPD)” value [3] was “Am”.
In the case of Urea, the “Wet (XRPD)” value ([2]; solvent EtOH) is reported as 16-B + FB-C, the “Humidity (XRPD)” value ([2]; solvent EtOH, 97% R.H. for 24 hours) is reported as 16-B + FB-C and the “Wet (XRPD)” value ([2]; solvent MtBE, MeOAc) is reported as “FB-C + urea”. For the same compound, the “Dry (XRPD)” value [3] was “FB-A +”.
For `CO[C@]1(C(=O)N[C@@H](C)c2ccc(-n3cc(F)cn3)nc2)CC[C@H](c2nc(C)cc(Nc3cc(C)[nH]n3)n2)CC1` [Solid Form 15-A, pralsetinib], the “solubility in simulated gastric fluid” value [4] was “high solubility”, the “residual solid after solubility test” value ([4]; fasted state simulated gastric fluid, listed as solid form 15-A) was “solid form 15-D” and the “Solubility in fasted state simulated gastric fluid” value ([4]; listed as solid form 15-A) was 1120 µg/mL (≈ 2100 µM). For the same compound, the “Solubility in fasted state simulated intestinal fluid” value ([4]; listed as solid form 15-A) was 20 µg/mL (≈ 37.5 µM), the “Solubility in fed state simulated intestinal fluid” value ([4]; listed as solid form 15-A) was 840 µg/mL (≈ 1570 µM) and the Solubility in water ([4]; listed as solid form 15-A) was 450 µg/mL (≈ 843 µM). The “stability slurrying 7 days in EtOAc” value ([5]; listed as Solid form 15-A) was “stable”, the “stability slurrying 7 days in EtOH” value ([5]; listed as Solid form 15-A) was “stable” and the “reduction in purity after 7 days slurry” value ([5]; EtOH:water (95:5 vol) slurry) was 0.13%. The “stability slurrying 7 days in EtOH:water (95:5 vol)” value ([5]; listed as Solid form 15-A) was “converted to Pattern 15-C”, the “stability … to humidification” value ([6]; listed as Pattern 15-A) was “stable” and the “stability … to humidification” value ([6]; listed as succinate 15-A) was “stable”. The “stability of salt solid form to drying” value ([6]; listed as succinate 15-A) was “stable”, the “mass change by DVS” value ([7]; between 2% and 90% relative humidity, listed as solid form 15-A) was 3.4 wt. % and the “mass change by DVS” value ([7]; between 15% and 75% relative humidity, listed as solid form 15-A) was 1.9 wt. %. The “DVS Mass Change” value ([7]; listed as Succinate 15-A) was 3.40 wt. %, the “reversibility of the DVS mass change” value ([7]; listed as solid form 15-A) was “appears to be reversible” and the “stability on exposure to 75% relative humidity at 40° C.” value ([8]; listed as Solid form 15-A) was “converted to Pattern 15-A+B”.
In the case of `CO[C@]1(C(=O)N[C@@H](C)c2ccc(-n3cc(F)cn3)nc2)CC[C@H](c2nc(C)cc(Nc3cc(C)[nH]n3)n2)CC1` [Solid Form D, pralsetinib], the “behaviour sitting in atmosphere” value [1] is reported as “converted to other solid forms” and the behaviour upon drying [1] is reported as “converted to solid form B”.
In the case of `Nc1ccc(C(=O)O)cc1` [4-Aminobenzoic Acid], the “Wet (XRPD)” value ([2]; solvent EtOH) is reported as “FB-C” and the “Wet (XRPD)” value ([2]; solvent MtBE, MeOAc) is reported as “FB-C + 4-Aminobenzoic”.
For `O=C(O)c1ccccc1` [Benzoic Acid], the “Wet (XRPD)” value ([2]; solvent MtBE, MeOAc, EtOH) was “FB-C” and the “Dry (XRPD)” value [3] was “Am”.
In the case of `O=C1NS(=O)(=O)c2ccccc21` [Saccharin], the “Wet (XRPD)” value ([2]; solvent EtOH) is reported as “Am. + 1 peak”, the “Wet (XRPD)” value ([2]; solvent MeOAc) is reported as “Am. + trace FB-C” and the “Wet (XRPD)” value ([2]; solvent MtBE) is reported as “FB-C + saccharin”. The “Dry (XRPD)” value [3] was “Am”.
